Key:
[1] = target: SCTR (secretin receptor) (Homo sapiens, UniProt P47872); assay: cAMP accumulation assay, agonist mode; assay type: cell-based; settings: CHO-K1, read-out: Emax in cAMP accumulation assays
[2] = target: SCTR-SmBiT (UniProt P47872 23-440); assay: cell-based or functional assay
SCTR-SmBiT, sequence (P47872 23-440): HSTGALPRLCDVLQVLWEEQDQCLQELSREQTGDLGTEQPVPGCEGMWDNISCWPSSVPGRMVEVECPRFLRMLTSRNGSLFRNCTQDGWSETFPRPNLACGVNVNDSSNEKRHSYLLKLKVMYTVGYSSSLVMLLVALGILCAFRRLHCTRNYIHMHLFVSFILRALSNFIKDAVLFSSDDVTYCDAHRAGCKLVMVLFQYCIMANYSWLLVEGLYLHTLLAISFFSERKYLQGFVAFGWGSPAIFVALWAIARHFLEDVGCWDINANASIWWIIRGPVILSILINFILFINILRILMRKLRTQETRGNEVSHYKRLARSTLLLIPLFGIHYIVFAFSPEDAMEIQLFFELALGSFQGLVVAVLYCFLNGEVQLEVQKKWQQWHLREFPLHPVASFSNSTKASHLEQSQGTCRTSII

SCTR (secretin receptor), sequence (P47872 23-440): as above

CC(C)C[C@H](NC(=O)CNC(=O)[C@H](CCC(N)=O)NC(=O)[C@H](CC(C)C)NC(=O)[C@H](CC(C)C)NC(=O)[C@H](CCCNC(=N)N)NC(=O)[C@H](CCC(N)=O)NC(=O)[C@H](CC(C)C)NC(=O)[C@H](CCCNC(=N)N)NC(=O)[C@H](C)NC(=O)CNC(=O)[C@H](CCC(=O)O)NC(=O)[C@H](CCCNC(=N)N)NC(=O)[C@H](CC(C)C)NC(=O)[C@H](CCCNC(=N)N)NC(=O)[C@H](CO)NC(=O)[C@H](CC(C)C)NC(=O)[C@H](CCC(=O)O)NC(=O)[C@H](CO)NC(=O)[C@@H](NC(=O)[C@H](Cc1ccccc1)NC(=O)[C@@H](NC(=O)CNC(=O)[C@@H](N)CC(=O)O)[C@@H](C)O)[C@@H](C)O)C(=O)N[C@H](C(N)=O)C(C)C [Sec(3–27)]
Emax [1]: 30%

HSDGTFTSELSRLREGARLQRLL [Sec(1–23)]
β-arrestin-2 recruitment (NanoBiT, SCTR-SmBiT with LgBiT-ARRB2), EC50 [2]: 1300 nM
